Assay results reported in a melting point compilation (Tetko et al.; mined from patent text by program, amines drawn as free bases though some values may be those of a salt).

Row | SMILES | melting point [°C]
1 | CN1C=CNC1=C(C(=O)C(F)(F)F)C(=O)C(F)(F)F | 180
2 | CC(=O)OCc1c(C)n(Cc2ccccc2)c2c(OCc3ccc(F)cc3)nncc12 | 109 to 110
3 | O=C(O)[C@@H]1CCCN1S(=O)(=O)CCS | 99 to 101
4 | COc1cc(C=C2SC(=S)N(c3ccc(O)cc3)C2=O)ccc1OC1OC(CO)C(O)C(O)C1NC(C)=O (stereo unspecified) | 234 to 236
5 | Nc1ccc(OCC(COc2ccc(N)cc2)(COc2ccc(N)cc2)COc2ccc(N)cc2)cc1 | 210 to 211
6 | CCCNc1nc(C)c(CCO)c(=O)n1C | 240
7 | CCOC(=O)c1c(=O)c2cc3c(cc2n2c(C)csc12)OCO3 | 308 to 311
8 | CCCCCCCCOC(=O)C1=CC(=O)C(C(=O)OCCCCCCCC)=C(S(=O)(=O)c2ccc(C)cc2)C1=O | 75 to 77
9 | COc1ccc(Cl)cc1-c1c(CCO)c(=O)[nH]c2ccc(C(F)(F)F)cc12 | 216 to 217
10 | N#CC(Cc1ccccn1)(c1ccc(F)cc1)c1ccc([N+](=O)[O-])c(C(F)(F)F)c1 (stereo unspecified) | 118 to 119
11 | CCC1(C)Cc2cc(OC)c(Cl)c(Cl)c2C1=O (stereo unspecified) | 121
12 | CCOC(=O)C=CC(=CN)C(=O)OCC | 109
13 | Nc1ccc(C2=NC(O)C(=O)Nc3ccc(Cl)cc32)cc1 (stereo unspecified) | > 350
14 | CC(C)Oc1cc(C(=O)O)n(Cc2ncc(C(F)(F)F)cc2Cl)n1 | 124 to 125
15 | Cc1cc(C)n(-c2ccc(OC=C3C=CC=CC3n3nnn(C)c3=O)c(Cl)c2)n1 (stereo unspecified) | 122 to 124
16 | CCc1c(CC(=O)NCCCCCCN)ccc(OC)c1OC | 136 to 138
17 | C#Cc1cc2c(Nc3ccc4c(cnn4Cc4ccccc4)c3)ncnc2s1 | 195
18 | CC(ON1C(C)(C)CC(O)CC1(C)C)C(=O)NCCCN(C)C (stereo unspecified) | 85 to 88
19 | COc1ccc2nc(NC(=O)C(CC3CCCC3)c3ccc(S(=O)(=O)NCc4ccccc4F)cc3)sc2n1 (stereo unspecified) | 238 to 240
20 | COC(=O)c1cc(C(=O)CBr)c(OC(C)=O)cc1NC(=O)C(F)(F)F | 260 to 261
21 | NS(=O)(=O)c1cc(Cl)c(Cl)cc1OC(F)(F)F | 181 to 185
22 | CCOC(=O)c1c(N)nc(C)c(NC(C)=O)c1C | 168 to 170

Row | SMILES | melting point [°C]
23 | c1ccc(Cc2cnc(N3CCN(c4nc(-c5ccccc5)nc5ccccc45)CC3)nc2)cc1 | 135 to 137
24 | O=C(OCCOCCOCCO)C(=O)c1ccc(OCCOc2ccc3ccccc3c2)cc1 | 70 to 71
25 | CC(=O)NC[C@H]1CN(c2cc(F)c(N3CCC(n4nnc(N5CCNCC5)n4)CC3)c(F)c2)C(=O)O1 | 180 to 185
26 | COc1ccccc1N1CCN(CCCNC(=O)c2csc3c(=O)cc(C(F)(F)F)oc23)CC1 | 170 to 177
27 | CC(C)NC(=O)C(Cl)Cl | 45 to 48
28 | NCCNc1cc(NCCO)c([N+](=O)[O-])c(NCCO)c1 | 220
29 | O=C(CCCCc1ccccc1)N[C@H](Cc1ccc(C(F)(F)F)cc1)[C@@H](O)c1ccc(F)cc1 (racemic) | 152 to 153
30 | O=C([C@H]1CC[C@H](Nc2ncc3ncnc(Nc4ccc(F)c(Cl)c4)c3n2)CC1)N1CCOCC1 | 221 to 225
31 | CCOC(=O)Cc1nc(-c2ccc(Cl)c(Cl)c2)oc1-c1ccoc1 | 130 to 131
32 | Cc1cc2nc(C)n(COC(=O)C(C)(C)C)c(=O)c2cc1CBr | 149 to 152
33 | COC(=O)[C@](C)(Cc1ccc(N(C(=O)OC(C)(C)C)C(=O)C2CCNCC2)cc1)n1nnnc1C1CCCN1S(=O)(=O)c1ccc(C)cc1 (stereo partly specified) | 92 to 102
34 | CCOC(=O)[C@@H]1Cc2ccccc2N1C(=O)CC[C@@H](NC(=O)OCc1ccccc1)C(=O)OCc1ccccc1 | 114 to 116
35 | CCOc1ccc(-c2ccc(C3(O)CN4CCC3CC4)cc2)cc1 (stereo unspecified) | 199 to 200
36 | CCOCCOc1ccc(-c2ccc3c(c2)C=C(C(=O)Nc2ccc(CN(C)C4CCOCC4)cc2)CCS3(=O)=O)cc1F | 212 to 214
37 | COC(C)=CC(=O)NC1CCCCC1 | 109
38 | COc1c2occc2c(OC)c2c(=O)cc(N3CCC(C4CCN(c5cc(=O)c6c(OC)c7ccoc7c(OC)c6o5)CC4)CC3)oc12 | 126 to 129
39 | CCOc1cc(C(F)(F)F)cc(Cl)c1-n1nc(C#N)c(SC(F)(F)F)c1N | 166
40 | COc1ccc(OC2COc3ccc(OCc4ccccc4)cc3C2=O)cc1 (stereo unspecified) | 98 to 100
41 | CN1CCc2c(N3CCCC3)c(F)c(N)c3c(=O)c(C(=O)O)cn1c23 | > 290
42 | COC(=O)C1=C(C(OC)OC)NC(C)=C(C(=O)OCC(C)(C)C)C1c1ccccc1C#N (stereo unspecified) | 130 to 131
43 | Nc1c(I)c(C(=O)NCC(O)CO)c(I)c(C(=O)NCC(O)CO)c1I (single isomer, unassigned; (-)) | 203

Continued, values first:

Row | melting point [°C] | SMILES
44 | 129 | CCOC(=O)C1=C(N(C)C)N=C(C)C(C(=O)OCC)C1c1ccccc1C#N (stereo unspecified)
45 | 40 to 40.5 | CCOC(=O)C=Cc1ccc(F)cc1F
46 | 153 to 157 | O=C(O)Cc1onc(-c2ccccc2)c1-c1ccccc1
47 | 91 to 93 | O=C(c1ccccc1)C1CCN(Cc2cncc(-c3ccccc3)c2)CC1
48 | 131 | O=S(=O)(Nc1ccc(C(F)(F)F)nc1I)c1ccccc1
49 | 142 | COc1cc(C(=O)c2c(C)c(OCCO)c3ccccn23)ccc1[N+](=O)[O-]
50 | 155 | COc1ccc(C(=CN2CCNC2=O)c2ccccc2)cc1OC
51 | 71 to 73 | C=CCSc1ccc(Oc2ccccc2)nn1
52 | 161 to 163 | O=C(O)C#Cc1ccc(Cl)cc1Cl
53 | 132 to 133 | Nc1ccc(Sc2ccccn2)cc1C(F)(F)F
54 | > 250 | Cc1nc2ccc(C(=O)O)nc2n1Cc1ccc(-c2ccccc2)cc1
55 | 173 to 175 | O=C(Nc1ccc(-n2nc(C(F)(F)F)cc2C(F)(F)F)cc1)c1ccccc1O
56 | 105 to 110 | O=C(C1=NN(c2ccc(Cl)cc2Cl)C(c2ccc(Cl)cc2)C1)N1CCCCC1 (stereo unspecified)
57 | 175 to 178 | CC(C)=C1CNc2ccc(O)cc21
58 | 58 to 59 | C=CCC(NC(=O)c1ccc(OC)cc1)C(C)=O (stereo unspecified)
59 | 129 to 130 | Cc1c(-c2ccncc2)sc2c1C(=O)CCC2
60 | 167 to 168 | COc1ccc(-c2ccc(C(=O)c3ccccc3)cc2)cc1
61 | 320 to 322 | NNC(=O)Nc1nc2ccccc2[nH]1
62 | 97 to 98 | CCOc1ccc(N(C)CCCN)cc1
63 | 210 to 213 | COC(=O)c1nc(C2CCCCC2)[nH]c1-c1ccc(C)cc1

Row | melting point [°C] | SMILES
64 | 269 | O=C(O)c1ccc(N2C(=O)C3C4C=CC(CC4)C3C2=O)cc1 (stereo unspecified)
65 | 102 to 104 | O=C(OCCO)c1ccc(Cl)c([N+](=O)[O-])c1
66 | 104 | CC(=O)c1ccc2ccccc2c1OCCCC(=O)O
67 | 152 to 154 | CCC1(CC)Cc2c(C(=O)O)ccc(OC)c2O1
68 | 167 | CC(CN(C)C)N1c2ccccc2Sc2ccc(C(=S)NCC3CCCCC3)cc21 (racemic)
69 | 97.8 | CC(=O)Nc1cc(C(=O)c2ccccc2)ccc1[N+](=O)[O-]
70 | 141 to 142 | CC(=O)c1sc(N2CCN(Cc3ccc(C(F)(F)F)cc3)C2=O)nc1C
71 | 178 to 180 | CN(CCOc1ccc(C=C2SC(=O)NC2=O)cc1)C(=O)c1ccccc1
72 | 210 to 212 | COC(=O)Nc1cccc(-c2ccc3nncn3n2)c1
73 | 135 to 137 | Oc1ccc(Cl)cc1CCc1ccccn1
74 | 171 to 172 | O=C(O)CCc1cnoc1-c1ccc(Cl)c(Cl)c1
75 | 259 to 263 | Cn1cc(-c2ccc(Br)cc2)c(=O)c(-c2cccc(C(=O)O)c2)c1
76 | 110 to 113 | CCNc1cccc(NC(=O)COC(C)=O)c1C#N
77 | 243 | CNC(=O)CC1CCN(Cc2cnc3cc(NC(=O)c4ccc(-c5ccc(F)cc5)cc4)c(C)cc3c2)CC1
78 | 58 to 58.5 | CSc1ccc2n1CCC2C#N (stereo unspecified)
79 | 139 to 140 | CCON=C(CC)C1=C(O)CC(c2ccc(NC(=O)c3ccccc3C)cc2)CC1=O (stereo unspecified)
80 | > 250 | Cc1cc(C)cc(Nc2cccc3c2OC(CN)C3)c1 (stereo unspecified)
81 | 223 | O=C(Nc1ccc2c(c1)OCCO2)c1ccc2cc(Br)ccc2c1
82 | 166 | COc1cc(-n2cnc3cc(-c4ccc(Cl)cc4)sc3c2=O)ccc1OC[C@H](OP(=O)(O)O)C1CC1
83 | 115 to 116 | O=C(O)CCCCCCCNS(=O)(=O)c1ccc(Br)cc1

Row | melting point [°C] | SMILES
84 | 260 to 262 | O=C1NCCc2c(-c3cccnc3)[nH]c3cccc1c23
85 | 125 to 127 | O=C1N(CCC2CC2)c2ccccc2C12COc1cc3c(cc12)OCO3 (stereo unspecified)
86 | 233 to 234 | Cc1ccc(-n2c3ccccc3c3cc(C(C#N)=C(C#N)C#N)ccc32)cc1
87 | 233 to 235 | CC1=C(C(=O)OCCO)C(c2cccc([N+](=O)[O-])c2)C2=C(CCCS2(=O)=O)N1 (stereo unspecified)
88 | 160 to 164 | CC(Oc1ccccc1Cl)c1nnc(N)s1 (stereo unspecified)
89 | 199 to 200 | FC(F)(F)c1cc(Nc2nc3ccccc3o2)ccc1Cl
90 | 272 to 273 | Cc1ccc(S(=O)(=O)Nc2ccc3nnc(C(=O)O)c(O)c3c2)cc1
91 | 123 to 125 | O=C(NCc1nccs1)c1ccnc(N2CCN(Cc3ccc(F)cc3)C2=O)c1
92 | 86 to 89 | CCOC(=O)c1cnn(-c2ccccc2)c1Br
93 | 179 to 180 | CC(=O)NCC1CC(c2ccc(N3CCOCC3)c(F)c2)=NO1 (single isomer, unassigned; (-))
94 | 189 to 191 | N#CN1C(=O)c2ccccc2C1=O
95 | 67 to 70 | COC(=O)c1cccc([N+](=O)[O-])c1CBr
96 | 78 to 80 | CCC1(COCc2ccccc2Cl)CCC(C)(C(N)=S)O1 (stereo unspecified)
97 | 69 to 70 | CC(C)c1nn(-c2ccc(Cl)cn2)cc1C=O
98 | 70.5 to 72 | Oc1cccc2c1CC=CC2
99 | 126 to 127 | ClCc1cn2c(-c3ccccc3)cccc2n1
100 | 250 to 252 | O=C1CCC(N2C(=O)c3cccc(CNC(=O)Nc4cccc5ccccc45)c3C2=O)C(=O)N1 (stereo unspecified)
101 | 234 to 235 | CCc1cccc(CC)c1NC(=O)C1c2ccccc2COc2ccc(Br)cc21 (stereo unspecified)
